From the OligoGym collection
Oligonucleotides are given in HELM: sugar(base)linkage, 5' to 3'; d 2'-deoxyribose, r ribose, m 2'-O-methylribose, p phosphate. ss, as = sense and antisense strand

Biological target: TMEM63B
Assay: reporter assay of Huesken 2005
Conditions: siRNA
Note: test concentration or dose not given here.

Substance	normalised inhibition (eCFP-eYFP dual reporter) [%]
RNA1{r(G)p.r(A)p.r(C)p.r(C)p.r(G)p.r(G)p.r(U)p.r(A)p.r(U)p.r(G)p.r(A)p.r(G)p.r(C)p.r(G)p.r(U)p.r(C)p.r(U)p.r(C)p.r(A)p.d(T)p.d(T)}|RNA2{r(U)p.r(G)p.r(A)p.r(G)p.r(A)p.r(C)p.r(G)p.r(C)p.r(U)p.r(C)p.r(A)p.r(U)p.r(A)p.r(C)p.r(C)p.r(G)p.r(G)p.r(U)p.r(C)p.d(A)p.d(T)}$$$RNA1{StrandType:ss}|RNA2{StrandType:as}$	99
RNA1{r(C)p.r(C)p.r(U)p.r(G)p.r(A)p.r(A)p.r(G)p.r(G)p.r(A)p.r(C)p.r(U)p.r(U)p.r(C)p.r(A)p.r(A)p.r(C)p.r(G)p.r(U)p.r(G)p.d(T)p.d(T)}|RNA2{r(C)p.r(A)p.r(C)p.r(G)p.r(U)p.r(U)p.r(G)p.r(A)p.r(A)p.r(G)p.r(U)p.r(C)p.r(C)p.r(U)p.r(U)p.r(C)p.r(A)p.r(G)p.r(G)p.d(A)p.d(T)}$$$RNA1{StrandType:ss}|RNA2{StrandType:as}$	84.5
RNA1{r(G)p.r(G)p.r(U)p.r(G)p.r(G)p.r(C)p.r(C)p.r(G)p.r(C)p.r(G)p.r(C)p.r(C)p.r(C)p.r(A)p.r(U)p.r(C)p.r(C)p.r(U)p.r(C)p.d(T)p.d(T)}|RNA2{r(G)p.r(A)p.r(G)p.r(G)p.r(A)p.r(U)p.r(G)p.r(G)p.r(G)p.r(C)p.r(G)p.r(C)p.r(G)p.r(G)p.r(C)p.r(C)p.r(A)p.r(C)p.r(C)p.d(A)p.d(C)}$$$RNA1{StrandType:ss}|RNA2{StrandType:as}$	49.4
RNA1{r(C)p.r(C)p.r(A)p.r(C)p.r(U)p.r(C)p.r(C)p.r(A)p.r(G)p.r(C)p.r(C)p.r(A)p.r(U)p.r(C)p.r(A)p.r(U)p.r(C)p.r(A)p.r(U)p.d(T)p.d(T)}|RNA2{r(A)p.r(U)p.r(G)p.r(A)p.r(U)p.r(G)p.r(A)p.r(U)p.r(G)p.r(G)p.r(C)p.r(U)p.r(G)p.r(G)p.r(A)p.r(G)p.r(U)p.r(G)p.r(G)p.d(T)p.d(G)}$$$RNA1{StrandType:ss}|RNA2{StrandType:as}$	77.4
RNA1{r(G)p.r(G)p.r(A)p.r(U)p.r(G)p.r(A)p.r(U)p.r(G)p.r(A)p.r(G)p.r(A)p.r(U)p.r(C)p.r(C)p.r(G)p.r(G)p.r(G)p.r(A)p.r(C)p.d(T)p.d(T)}|RNA2{r(G)p.r(U)p.r(C)p.r(C)p.r(C)p.r(G)p.r(G)p.r(A)p.r(U)p.r(C)p.r(U)p.r(C)p.r(A)p.r(U)p.r(C)p.r(A)p.r(U)p.r(C)p.r(C)p.d(T)p.d(T)}$$$RNA1{StrandType:ss}|RNA2{StrandType:as}$	89.3
RNA1{r(C)p.r(A)p.r(G)p.r(G)p.r(C)p.r(C)p.r(U)p.r(G)p.r(C)p.r(U)p.r(C)p.r(A)p.r(U)p.r(G)p.r(U)p.r(A)p.r(C)p.r(A)p.r(U)p.d(T)p.d(T)}|RNA2{r(A)p.r(U)p.r(G)p.r(U)p.r(A)p.r(C)p.r(A)p.r(U)p.r(G)p.r(A)p.r(G)p.r(C)p.r(A)p.r(G)p.r(G)p.r(C)p.r(C)p.r(U)p.r(G)p.d(G)p.d(G)}$$$RNA1{StrandType:ss}|RNA2{StrandType:as}$	72.1
RNA1{r(C)p.r(C)p.r(U)p.r(C)p.r(U)p.r(U)p.r(C)p.r(A)p.r(U)p.r(C)p.r(A)p.r(A)p.r(U)p.r(G)p.r(G)p.r(A)p.r(A)p.r(U)p.r(C)p.d(T)p.d(T)}|RNA2{r(G)p.r(A)p.r(U)p.r(U)p.r(C)p.r(C)p.r(A)p.r(U)p.r(U)p.r(G)p.r(A)p.r(U)p.r(G)p.r(A)p.r(A)p.r(G)p.r(A)p.r(G)p.r(G)p.d(G)p.d(T)}$$$RNA1{StrandType:ss}|RNA2{StrandType:as}$	73.9
RNA1{r(A)p.r(C)p.r(U)p.r(U)p.r(G)p.r(A)p.r(A)p.r(A)p.r(U)p.r(C)p.r(A)p.r(G)p.r(G)p.r(G)p.r(A)p.r(A)p.r(C)p.r(A)p.r(A)p.d(T)p.d(T)}|RNA2{r(U)p.r(U)p.r(G)p.r(U)p.r(U)p.r(C)p.r(C)p.r(C)p.r(U)p.r(G)p.r(A)p.r(U)p.r(U)p.r(U)p.r(C)p.r(A)p.r(A)p.r(G)p.r(U)p.d(T)p.d(G)}$$$RNA1{StrandType:ss}|RNA2{StrandType:as}$	34.4
RNA1{r(G)p.r(C)p.r(G)p.r(U)p.r(C)p.r(U)p.r(U)p.r(C)p.r(A)p.r(C)p.r(G)p.r(G)p.r(U)p.r(G)p.r(G)p.r(U)p.r(C)p.r(A)p.r(U)p.d(T)p.d(T)}|RNA2{r(A)p.r(U)p.r(G)p.r(A)p.r(C)p.r(C)p.r(A)p.r(C)p.r(C)p.r(G)p.r(U)p.r(G)p.r(A)p.r(A)p.r(G)p.r(A)p.r(C)p.r(G)p.r(C)p.d(A)p.d(C)}$$$RNA1{StrandType:ss}|RNA2{StrandType:as}$	75.9
RNA1{r(C)p.r(C)p.r(G)p.r(U)p.r(G)p.r(C)p.r(A)p.r(C)p.r(U)p.r(A)p.r(C)p.r(C)p.r(U)p.r(G)p.r(U)p.r(C)p.r(C)p.r(U)p.r(U)p.d(T)p.d(T)}|RNA2{r(A)p.r(A)p.r(G)p.r(G)p.r(A)p.r(C)p.r(A)p.r(G)p.r(G)p.r(U)p.r(A)p.r(G)p.r(U)p.r(G)p.r(C)p.r(A)p.r(C)p.r(G)p.r(G)p.d(C)p.d(A)}$$$RNA1{StrandType:ss}|RNA2{StrandType:as}$	86.8
RNA1{r(C)p.r(U)p.r(C)p.r(U)p.r(A)p.r(C)p.r(U)p.r(A)p.r(C)p.r(G)p.r(C)p.r(C)p.r(U)p.r(A)p.r(C)p.r(C)p.r(U)p.r(G)p.r(C)p.d(T)p.d(T)}|RNA2{r(G)p.r(C)p.r(A)p.r(G)p.r(G)p.r(U)p.r(A)p.r(G)p.r(G)p.r(C)p.r(G)p.r(U)p.r(A)p.r(G)p.r(U)p.r(A)p.r(G)p.r(A)p.r(G)p.d(A)p.d(T)}$$$RNA1{StrandType:ss}|RNA2{StrandType:as}$	56.4
RNA1{r(C)p.r(U)p.r(G)p.r(G)p.r(U)p.r(C)p.r(A)p.r(U)p.r(C)p.r(A)p.r(C)p.r(C)p.r(A)p.r(U)p.r(C)p.r(G)p.r(U)p.r(C)p.r(A)p.d(T)p.d(T)}|RNA2{r(U)p.r(G)p.r(A)p.r(C)p.r(G)p.r(A)p.r(U)p.r(G)p.r(G)p.r(U)p.r(G)p.r(A)p.r(U)p.r(G)p.r(A)p.r(C)p.r(C)p.r(A)p.r(G)p.d(G)p.d(A)}$$$RNA1{StrandType:ss}|RNA2{StrandType:as}$	67
RNA1{r(C)p.r(U)p.r(G)p.r(C)p.r(U)p.r(C)p.r(A)p.r(U)p.r(G)p.r(U)p.r(A)p.r(C)p.r(A)p.r(U)p.r(G)p.r(A)p.r(U)p.r(C)p.r(C)p.d(T)p.d(T)}|RNA2{r(G)p.r(G)p.r(A)p.r(U)p.r(C)p.r(A)p.r(U)p.r(G)p.r(U)p.r(A)p.r(C)p.r(A)p.r(U)p.r(G)p.r(A)p.r(G)p.r(C)p.r(A)p.r(G)p.d(G)p.d(C)}$$$RNA1{StrandType:ss}|RNA2{StrandType:as}$	49
RNA1{r(G)p.r(U)p.r(A)p.r(U)p.r(C)p.r(U)p.r(G)p.r(C)p.r(U)p.r(G)p.r(C)p.r(U)p.r(C)p.r(A)p.r(C)p.r(C)p.r(G)p.r(U)p.r(C)p.d(T)p.d(T)}|RNA2{r(G)p.r(A)p.r(C)p.r(G)p.r(G)p.r(U)p.r(G)p.r(A)p.r(G)p.r(C)p.r(A)p.r(G)p.r(C)p.r(A)p.r(G)p.r(A)p.r(U)p.r(A)p.r(C)p.d(A)p.d(G)}$$$RNA1{StrandType:ss}|RNA2{StrandType:as}$	65.4
RNA1{r(U)p.r(C)p.r(C)p.r(G)p.r(A)p.r(G)p.r(G)p.r(C)p.r(U)p.r(U)p.r(C)p.r(A)p.r(U)p.r(C)p.r(U)p.r(G)p.r(G)p.r(U)p.r(G)p.d(T)p.d(T)}|RNA2{r(C)p.r(A)p.r(C)p.r(C)p.r(A)p.r(G)p.r(A)p.r(U)p.r(G)p.r(A)p.r(A)p.r(G)p.r(C)p.r(C)p.r(U)p.r(C)p.r(G)p.r(G)p.r(A)p.d(T)p.d(G)}$$$RNA1{StrandType:ss}|RNA2{StrandType:as}$	29.2
RNA1{r(U)p.r(C)p.r(U)p.r(U)p.r(C)p.r(A)p.r(U)p.r(C)p.r(C)p.r(U)p.r(C)p.r(C)p.r(U)p.r(C)p.r(U)p.r(U)p.r(C)p.r(U)p.r(U)p.d(T)p.d(T)}|RNA2{r(A)p.r(A)p.r(G)p.r(A)p.r(A)p.r(G)p.r(A)p.r(G)p.r(G)p.r(A)p.r(G)p.r(G)p.r(A)p.r(U)p.r(G)p.r(A)p.r(A)p.r(G)p.r(A)p.d(G)p.d(G)}$$$RNA1{StrandType:ss}|RNA2{StrandType:as}$	58.4
RNA1{r(A)p.r(C)p.r(A)p.r(G)p.r(C)p.r(C)p.r(A)p.r(U)p.r(G)p.r(A)p.r(C)p.r(C)p.r(G)p.r(G)p.r(U)p.r(A)p.r(U)p.r(G)p.r(A)p.d(T)p.d(T)}|RNA2{r(U)p.r(C)p.r(A)p.r(U)p.r(A)p.r(C)p.r(C)p.r(G)p.r(G)p.r(U)p.r(C)p.r(A)p.r(U)p.r(G)p.r(G)p.r(C)p.r(U)p.r(G)p.r(U)p.d(C)p.d(C)}$$$RNA1{StrandType:ss}|RNA2{StrandType:as}$	56.4
RNA1{r(A)p.r(U)p.r(G)p.r(C)p.r(G)p.r(U)p.r(A)p.r(G)p.r(A)p.r(C)p.r(A)p.r(C)p.r(A)p.r(C)p.r(C)p.r(U)p.r(C)p.r(C)p.r(A)p.d(T)p.d(T)}|RNA2{r(U)p.r(G)p.r(G)p.r(A)p.r(G)p.r(G)p.r(U)p.r(G)p.r(U)p.r(G)p.r(U)p.r(C)p.r(U)p.r(A)p.r(C)p.r(G)p.r(C)p.r(A)p.r(U)p.d(G)p.d(C)}$$$RNA1{StrandType:ss}|RNA2{StrandType:as}$	76.8
RNA1{r(G)p.r(C)p.r(C)p.r(U)p.r(U)p.r(U)p.r(G)p.r(U)p.r(C)p.r(A)p.r(C)p.r(C)p.r(U)p.r(U)p.r(C)p.r(C)p.r(A)p.r(C)p.r(A)p.d(T)p.d(T)}|RNA2{r(U)p.r(G)p.r(U)p.r(G)p.r(G)p.r(A)p.r(A)p.r(G)p.r(G)p.r(U)p.r(G)p.r(A)p.r(C)p.r(A)p.r(A)p.r(A)p.r(G)p.r(G)p.r(C)p.d(C)p.d(A)}$$$RNA1{StrandType:ss}|RNA2{StrandType:as}$	72.5
RNA1{r(C)p.r(U)p.r(A)p.r(G)p.r(C)p.r(U)p.r(C)p.r(C)p.r(C)p.r(A)p.r(C)p.r(G)p.r(U)p.r(C)p.r(U)p.r(A)p.r(U)p.r(G)p.r(U)p.d(T)p.d(T)}|RNA2{r(A)p.r(C)p.r(A)p.r(U)p.r(A)p.r(G)p.r(A)p.r(C)p.r(G)p.r(U)p.r(G)p.r(G)p.r(G)p.r(A)p.r(G)p.r(C)p.r(U)p.r(A)p.r(G)p.d(G)p.d(A)}$$$RNA1{StrandType:ss}|RNA2{StrandType:as}$	66.7
